Measurements published in US20220098197A1, “SALTS OF HETEROCYCLIC COMPOUND AND USE THEREOF” (priority 2019, published 2022).

Columns and labels:
[1] = system: NF-κB signalling pathway in the lung of LPS-induced ALI mice; experiment: Western blotting of NF-κB signalling pathway, lung tissue of ALI mice; assay type: in vivo, Balb/c mice; conditions: CT-NA 10 mg/kg or 30 mg/kg
Experimental: Specific pathogen-free (SPF) Balb/c mice (♂/♀; 20-26 g; 8 weeks old) were purchased from Shanghai SIPPR-BK Experimental Animal Co., Ltd. Mice were kept in an isolated ventilated cage in an environment of 40-60% humidity, 24±2° C., and 12 hrs/12 hrs dark-light cycle, and had free access to food and water. The method for preparing the LPS-induced ALI model was simply described as follows. The mice were randomly divided into a control group (12 mice) and an LPS group (48 mice). The LPS group (48 mice) was further divided into four subgroups (12 mice in each subgroup). The unanaesthetized mice in the four subgroups of LPS were intragastrically administered with normal saline (NS), CT-NA at 10 mg/kg or 30 mg/kg, and Dex at 1 mg/kg, respectively. One hour later, the mice were anesthetized with sodium pentobarbital (intraperitoneal injection at 40 mg/kg), and then subjected to intratracheal instillation of NS to control group and LPS (4 mg/kg) to all LPS subgroups. 12 hrs later, the unanaesthetized mice of the LPS group were intragastrically administered with NS, CT-NA at 10 mg/kg or 30 mg/kg, or Dex at 1 mg/kg, respectively (FIG. 16). […] 24 hrs after LPS challenge, the oxygen saturation (SO2) of all mice was measured by a Moor VMS-OXY™ instrument which measured SO2 (%) in the microcirculation at the wavelength range of 500 to 650 nm. […]

RAW264.7 macrophages = experiment: Cell viability (MTT) assay with LPS/PGD2, RAW264.7; assay type: cell-based, mouse
Experimental: The cell lines of RAW 264.7 macrophages and mouse leukemia mononuclear macrophages were purchased from ATCC (Manassas, Va.), and cultured in RPMI-1640 medium containing penicillin (100 U/ml), streptomycin (100 μg/ml) and 10% fetal bovine serum. RAW264.7 macrophage is an excellent model for screening anti-inflammatory drugs and evaluating the inhibitor pathways that stimulated the production of pro-inflammatory cytokines and enzymes. MTT was used to determine the cytotoxicity of CT-NA alone and its combination with PGD2 and LPS on RAW264.7 macrophages and isolated peritoneal macrophages according to the manufacturer's protocol. Briefly, RAW 264.7 macrophages were plated in a 96-well plate at a concentration of 4×10^5 cells/ml for 12 hrs, and then exposed to CT-NA (0-200 μM) at 37° C. for 1 hour. Next, RAW 264.7 macrophages were further exposed to LPS (100 ng/ml) and PGD2 (10 μM) for 24 hrs, and then treated with MTT (5 mg/ml) at 37° C. for 4 hrs. Then, the supernatant of each well was replaced with DMSO (200 μl/well), and the absorbance was measured at 570 nm.

[2] = Stability test (influencing factors: light, high temperature, high humidity); assay type: physicochemical
Experimental: Test process: An appropriate amount of each test sample was placed on a clean watch glass without a lid and then placed under the conditions of light 4500 lx±500 lx, high temperature of 60° C., high humidity of 92.5% RH for 5 days and 10 days, respectively. The properties and related substances were determined and the results were compared with the results at day 0 to observe the stability.
The test method for related substances was as follows.
Preparation of test sample solution: About 10 mg of each test sample was placed in a 10 ml volumetric flask, and 50% acetonitrile aqueous solution was added to dissolve sample, and diluted to the mark, shaken well, and filtered to obtain the test sample solution. A precise amount of 10 μl of the test sample solution was taken and injected according to the above chromatographic method, and the maximum single impurity and total impurity were calculated according to the area normalization method.

[3] = high temperature 60° C., Day 10
[4] = light condition 4500 lx±500 lx, Day 5
[5] = light condition 4500 lx±500 lx, Day 10

CN([C@@H]1CCc2c(CC(=O)[O-])c3cccnc3n2C1)S(=O)(=O)c1ccc(F)cc1.[Na+] [Sodium salt hydrate]
degradation of IκBα and P65 induced by LPS [1]: strongly reversed | LPS-induced IκBα and P65 activation ([1]; dose-dependent): reduced | cytotoxicity (MTT), LPS plus CT-NA (RAW264.7 macrophages; LPS (100 ng/ml) plus CT-NA up to 100 μM): non-toxic | cytotoxicity (MTT), PGD2 plus CT-NA (RAW264.7 macrophages; PGD2 (10 μM) plus CT-NA up to 100 μM): non-toxic | stability under high temperature and high humidity conditions (in words) ([2]; 60° C., 92.5% RH, 5 and 10 days): relatively stable | maximum single impurity % ([2]; Day 0): 0.03% | property ([2]; Day 0): white powder | total impurity % ([2]; Day 0): 0.07% | maximum single impurity % ([2]; high humidity 92.5% RH, Day 5): 0.02% | property ([2]; high humidity 92.5% RH, Day 5): white powder | total impurity % ([2]; high humidity 92.5% RH, Day 5): 0.07% | maximum single impurity % ([2]; high humidity 92.5% RH, Day 10): 0.02% | property ([2]; high humidity 92.5% RH, Day 10): white powder | total impurity % ([2]; high humidity 92.5% RH, Day 10): 0.06% | maximum single impurity % ([2]; high temperature 60° C., Day 5): 0.02% | property ([2]; high temperature 60° C., Day 5): white powder | total impurity % ([2]; high temperature 60° C., Day 5): 0.07% | maximum single impurity % [2, 3]: 0.02% | property [2, 3]: white powder | total impurity % [2, 3]: 0.09% | maximum single impurity % [2, 4]: 0.06% | property [2, 4]: light yellow powder | total impurity % [2, 4]: 0.16% | maximum single impurity % [2, 5]: 0.15% | property [2, 5]: light yellow powder | total impurity % [2, 5]: 0.26%
